Measurements as given in patent US20160136229A1, “MATERIALS FOR POSITIVE CATHEPSIN B MODULATION AND METHODS OF USE FOR TREATING MILD COGNITIVE IMPAIRMENT (MCI), EARLY DEMENTIA, A-SYNUCLEINOPATHY, TRAUMATIC BRAIN INJURY, CARDIOMYOPATHY, EYE DISEASE AND SKIN DAMAGE” (University of North Carolina at Pembroke, priority 2013, published 2016).

Assays:
[1] = tested on: Fischer rats; conditions: cited from earlier work
[2] = tested on: transgenic mouse model of Alzheimer's disease; conditions: cited from earlier work
[3] = tested on: active cathepsin B; test: Active cathepsin B in rat organotypic heart slice cultures (Aβ-induced cardiomyopathy model); assay type: cell-based; conditions: 2 days of treatment, P=0.027 vs vehicle
Method: FIG. 9. The active form of cathepsin B is reduced in the slice model of Δβ-induced cardiomyopathy. Organotypic heart slice cultures from rats were treated with the control vehicle solution or with Δβ42, the peptide that accumulates in Alzheimer's disease brains as well as in heart tissue during some forms of cardiomyopathy.
To test for changes in cathepsin B during protein accumulation induced myopathy, heart slice cultures from rat were prepared and treated with […], the peptide that accumulates in Alzheimer's disease brains as well as in heart tissue during some forms of cardiomyopathy (Bateman et al., 2012; Sanbe et al., 2004, 2005).

| Compound | spatial memory [1] | spatial learning [2] | active cathepsin B in heart slices [3] |
| --- | --- | --- | --- |
| CC12CC3CC(C)(C1)CC(N)(C3)C2 [memantine] | failed to significantly improve | improve spatial learning |  |
| Aβ42: the peptide that accumulates in Alzheimer's disease brains as well as in heart tissue during some forms of cardiomyopathy |  |  | significant decrease |
